Literature values, collected in US10293048B2, “Pharmaceutical compositions comprising boronic acid compounds” (DR. REDDY'S LABORATORIES LIMITED, priority 2012, dated 2019).
Where two headings read alike, the source gives them in different places.

Conditions: 1.3 mM in 2% ethyl alcohol/98% normal saline pH 2.8, 25° C., 14 days

## CC(C)C[C@H](NC(=O)[C@H](Cc1ccccc1)NC(=O)c1cnccn1)B(O)O [bortezomib, [(1R)-3-methyl-1-[[(2S)-1-oxo-3-phenyl-2-[(pyrazinylcarbonyl)amino]propyl]amino]butyl]boronic acid]
Containing 0.1% of ascorbic acid
  degradation: 21.8%
No ascorbic acid
  degradation: 5.9%
